The target of experiment [1] is α-glucosidase from S. cerevisiae (GH 13). Further details: method as in PMID 2825997. The conditions noted are these: yeast; read-out: Ki α-Glc (yeast); cited from earlier work.
The subject of experiment [2] is α-galactosidase from E. coli (GH 36). To be noted: cited from earlier work.
The target of experiment [3] is T1, α-galactosidase from green coffee beans (gcb, GH 27) (Coffea arabica, UniProt Q42656).
T1 construct: Green coffee bean α-galactosidase: 50 mM sodium phosphate buffer (pH 7); from tissue; host or cells: green coffee beans
T1 sequence (Q42656 16-378): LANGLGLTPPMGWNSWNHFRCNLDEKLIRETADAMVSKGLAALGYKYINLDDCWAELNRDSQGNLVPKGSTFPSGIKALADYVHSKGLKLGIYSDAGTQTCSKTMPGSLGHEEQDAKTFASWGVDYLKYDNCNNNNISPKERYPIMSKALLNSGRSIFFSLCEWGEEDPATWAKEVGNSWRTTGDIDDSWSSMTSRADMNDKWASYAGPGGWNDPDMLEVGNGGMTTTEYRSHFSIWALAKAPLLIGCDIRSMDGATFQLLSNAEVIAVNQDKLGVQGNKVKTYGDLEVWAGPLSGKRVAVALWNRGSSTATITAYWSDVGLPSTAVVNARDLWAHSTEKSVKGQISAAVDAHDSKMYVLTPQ
The conditions noted are these: cited from earlier work.

For experiment [4], the target named is T2, Fabrazyme® (commercial recombinant lysosomal α-galactosidase, GH 27) (Homo sapiens, UniProt P06280).
T2 construct: purchased
T2 sequence (P06280 32-429): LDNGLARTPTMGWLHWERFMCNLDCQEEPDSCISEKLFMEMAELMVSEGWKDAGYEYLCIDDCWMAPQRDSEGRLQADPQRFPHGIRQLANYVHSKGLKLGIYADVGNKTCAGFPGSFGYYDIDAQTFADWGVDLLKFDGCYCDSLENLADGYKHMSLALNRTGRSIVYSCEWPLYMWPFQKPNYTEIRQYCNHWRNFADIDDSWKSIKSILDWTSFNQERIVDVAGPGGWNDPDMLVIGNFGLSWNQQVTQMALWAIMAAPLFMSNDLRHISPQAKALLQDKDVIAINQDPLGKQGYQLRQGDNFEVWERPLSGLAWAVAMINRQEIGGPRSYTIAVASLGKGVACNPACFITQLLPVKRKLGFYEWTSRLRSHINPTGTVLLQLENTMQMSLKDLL
The conditions noted are these: cited from earlier work.

For experiment [5], the system named is bovine liver α-galactosidase. Further details: method as in PMID 15858658. To be noted: cited from earlier work.
A further experiment deals with β-glucosidase (almonds). The arrangement: method as in PMID 15064801. The conditions noted are these: reported in literature, read-out: inhibitory activity against β-glucosidase; cited from earlier work.
In experiment [6] the target is T3, recombinant human lysosomal β-glucocerebrosidase (GCase, GH 30) (Homo sapiens, UniProt P04062).
T3 sequence (P04062 40-536): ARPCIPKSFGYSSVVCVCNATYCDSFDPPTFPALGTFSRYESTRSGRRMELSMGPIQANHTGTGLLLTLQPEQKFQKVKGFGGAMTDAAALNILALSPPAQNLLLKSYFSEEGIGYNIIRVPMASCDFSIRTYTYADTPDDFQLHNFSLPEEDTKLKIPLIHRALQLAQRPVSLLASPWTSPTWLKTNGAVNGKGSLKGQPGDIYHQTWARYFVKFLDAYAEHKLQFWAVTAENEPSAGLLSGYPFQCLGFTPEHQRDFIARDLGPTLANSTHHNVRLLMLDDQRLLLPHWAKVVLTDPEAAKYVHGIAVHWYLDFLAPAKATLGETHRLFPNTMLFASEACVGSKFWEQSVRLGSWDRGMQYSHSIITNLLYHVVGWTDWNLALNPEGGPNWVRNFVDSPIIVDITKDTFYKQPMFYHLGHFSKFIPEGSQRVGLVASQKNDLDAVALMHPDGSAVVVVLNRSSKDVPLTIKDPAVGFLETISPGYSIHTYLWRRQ
Briefly: Ki determination with GCase (β-glucocerebrosidase). It counts as biochemical. The conditions noted are these: pH 7, substrate Glc-β-dNP, room temperature. How it is done:
(§1) Kinetic studies were performed at room temperature in an appropriate buffer for each enzyme (specific conditions can be found below). All reactions were performed in half-area 96-well-plates (Corning) and monitored with a Synergy H1 plate reader (BioTek). In each experiment, the appropriate concentration of the enzyme was incubated with different concentrations of the inhibitors for 2–5 minutes before initiating the reaction by the addition of the glycoside substrate. The initial rate was then measured by monitoring the increase in, either absorbance at 405 nm (where the aglycone is either p-nitrophenol (pNP) or 2,4-dinitrophenol (dNP)) or fluorescence at 365/455 nm (where the aglycone is 4-methylumbelliferone (MU)) for up to five minutes. Ki determinations were performed using two different substrate concentrations. For each substrate concentration, a range of three to six inhibitor concentrations was used. Dixon plots (1/v vs. [I]) were constructed to validate the use of competitive inhibition model and to assess the fit of the data. The data were then fit to a competitive inhibition model using non-linear regression analysis with Grafit 7.0.0. (Erithacus Software).

Experiment [7] deals with lac Z β-galactosidase from E. coli (GH 2) (Escherichia coli, UniProt P00722). Briefly: Ki determination with E. coli lac Z β-galactosidase. It counts as biochemical. To be noted: pH 7, substrate Gal-β-pNP, room temperature. How it is done:
as §1

In experiment [8] the target is T4, β-glucosidase/β-galactosidase from Agrobacterium sp. (Abg, GH 1) (Agrobacterium sp., UniProt P12614).
T4 sequence (P12614 1-459): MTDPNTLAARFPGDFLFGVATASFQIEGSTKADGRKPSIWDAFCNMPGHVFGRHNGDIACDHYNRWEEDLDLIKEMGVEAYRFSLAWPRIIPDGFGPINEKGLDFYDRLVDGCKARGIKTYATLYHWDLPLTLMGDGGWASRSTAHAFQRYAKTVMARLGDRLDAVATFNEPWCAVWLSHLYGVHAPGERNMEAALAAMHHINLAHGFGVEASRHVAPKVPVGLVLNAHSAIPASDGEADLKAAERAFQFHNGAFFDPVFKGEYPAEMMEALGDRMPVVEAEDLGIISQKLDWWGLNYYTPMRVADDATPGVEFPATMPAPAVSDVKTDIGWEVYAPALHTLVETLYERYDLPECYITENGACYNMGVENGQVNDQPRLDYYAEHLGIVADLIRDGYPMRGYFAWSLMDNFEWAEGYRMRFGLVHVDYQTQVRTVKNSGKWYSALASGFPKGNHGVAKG
Briefly: Ki determination with Agrobacterium sp. β-glucosidase (Abg). The experiment is classed as biochemical. To be noted: pH 7, substrate Gal-β-pNP, room temperature; read-out: Ki Abg (β-Glc/β-Gal) (GH 1). The method, then:
as §1
Agrobacterium sp. β-glucosidase:[48,49]

Experiment [9] has as its target α-glucosidase from S. cerevisiae (GH 13). The experiment can be described thus: Ki determination with S. cerevisiae α-glucosidase. The experiment is classed as biochemical. The conditions noted are these: pH 7, substrate Glc-α-pNP, room temperature; read-out: Ki S. cer. (α-Glc) (GH 13). How it is done: as §1
S. cerevisiae α-glucosidase: 50 mM sodium phosphate buffer (pH 7). Substrate: Glc-α-pNP, Km = 0.75 mM.

In experiment [10] the target is T1, α-galactosidase from green coffee beans (gcb, GH 27). The experiment can be described thus: Ki determination with green coffee bean α-galactosidase. It counts as biochemical. The conditions noted are these: pH 7, substrate Gal-α-MU, room temperature. The method, then: as §1
For experiment [11], the target named is T2, Fabrazyme® (commercial recombinant lysosomal α-galactosidase, GH 27). Briefly: Ki determination with Fabrazyme (acid α-galactosidase). The conditions noted are these: pH 5.5, substrate Gal-α-dNP, room temperature. The experiment is classed as biochemical. How it is done:
as §1

Where [12] appears, read: read-out: Ki gcb α-galactosidase.

The structures appear in SMILES notation. Where two headings read alike, the source gives them in different places. Where only a bound is given, the exact number is not on record here.

The term IC50 denotes the point on the concentration scale where inhibition reaches its midpoint.

Chain of lac Z β-galactosidase from E. coli (GH 2) (P00722 2-1024 limits assumed): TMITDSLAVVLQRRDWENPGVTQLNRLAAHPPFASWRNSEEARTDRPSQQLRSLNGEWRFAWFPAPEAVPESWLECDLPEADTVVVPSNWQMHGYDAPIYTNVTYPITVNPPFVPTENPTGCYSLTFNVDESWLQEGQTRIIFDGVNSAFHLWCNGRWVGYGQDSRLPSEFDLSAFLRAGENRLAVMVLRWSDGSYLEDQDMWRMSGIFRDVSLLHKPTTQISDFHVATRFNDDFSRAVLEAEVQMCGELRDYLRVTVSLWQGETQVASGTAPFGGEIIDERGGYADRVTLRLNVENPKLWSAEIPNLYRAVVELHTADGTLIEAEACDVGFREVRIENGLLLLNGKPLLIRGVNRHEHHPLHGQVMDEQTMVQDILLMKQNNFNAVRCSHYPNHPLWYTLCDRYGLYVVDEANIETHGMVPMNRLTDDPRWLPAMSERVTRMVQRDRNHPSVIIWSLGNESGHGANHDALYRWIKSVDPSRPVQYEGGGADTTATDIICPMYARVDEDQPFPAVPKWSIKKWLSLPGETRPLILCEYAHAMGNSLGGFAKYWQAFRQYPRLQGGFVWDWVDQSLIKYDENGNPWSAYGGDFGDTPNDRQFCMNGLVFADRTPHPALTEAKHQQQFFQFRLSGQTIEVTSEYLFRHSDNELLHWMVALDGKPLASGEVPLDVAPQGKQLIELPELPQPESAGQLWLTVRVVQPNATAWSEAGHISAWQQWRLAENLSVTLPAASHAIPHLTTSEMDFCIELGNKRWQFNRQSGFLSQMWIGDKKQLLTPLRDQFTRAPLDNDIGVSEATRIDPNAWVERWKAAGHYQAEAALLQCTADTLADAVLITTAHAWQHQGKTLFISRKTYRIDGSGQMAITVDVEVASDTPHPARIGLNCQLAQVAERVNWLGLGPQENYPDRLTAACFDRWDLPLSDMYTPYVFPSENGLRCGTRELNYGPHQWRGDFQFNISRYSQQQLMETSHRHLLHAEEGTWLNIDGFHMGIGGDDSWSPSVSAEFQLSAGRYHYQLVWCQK

With `OC[C@H]1NC[C@H](O)[C@@H](O)[C@H]1O` [compound 1, 1,5-dideoxy-1,5-imino-D-galactitol], in experiment [1], the Ki is more than 1 mM. For the same molecule, the IC50 in experiment [2] (read-out: IC50 α-galactosidase from E. coli) is 0.24 µM.
In the case of `OC[C@@H]1C[C@@H](O)[C@@H](O)[C@@H](CO)N1` [compound 2], the values for the IC50 in experiment [3] (read-out: IC50 gcb galactosidase) and in experiment [2] (read-out: IC50 E. coli enzyme) were 0.06 µM and 32 µM, respectively.
As to `OC[C@H]1CNC[C@@H](O)[C@H]1O` [compound 3, 4-epi-isofagomine], the IC50 in experiment [3] (read-out: IC50 gcb) is 200 µM.
As for `CCCCCCN1C[C@@H](O)[C@@H](O)[C@@](F)(CO)C1` [compound 4], the Ki in [3] (setting [12]) is 500 nM; in [4] (read-out: Ki Fabrazyme®), 116 µM.
For `N[C@H]1C[C@H](CO)[C@H](O)[C@H](O)[C@H]1O` [compound 5, 4-epi-validamine], the values for the IC50 in experiment [3] (read-out: IC50 gcb) and in experiment [2] (read-out: IC50 E. coli) were 500 µM and 890 µM, respectively.
With `N[C@@H]1[C@H](O)[C@@H](O)[C@@H](O)[C@]2(CO)C[C@H]12` [compound 6], in experiment [3] (read-out: Ki gcb), the Ki is 540 nM. The IC50 in [2] (read-out: IC50 E. coli) was 80 µM.
As to `OC[C@H]1NC[C@@H](O)[C@H]1O` [compound 7, 1,4-dideoxy-1,4-imino-D-lyxitol], in experiment [3] (setting [12]), the Ki was 130 nM.
As for `O=S1(=O)N[C@@H]2[C@H](O)[C@@H](O)[C@@H](O)[C@@H](CO)[C@@H]2O1` [compound 11], in experiment [4] (as printed in Fig. 1), the IC50 was 110 µM. In addition, the Ki in experiment [4] (read-out: Ki Fabrazyme® (α-Gal) (GH 27)) is 110 µM.
With `OC[C@@H]1[C@H](O)[C@H](O)[C@@H](O)[C@H]1NCc1ccccc1` [compound 12], the Ki was 430 nM in [3] (setting [12]) and 510 nM on β-glucosidase (almonds). For the same molecule, the “inhibitory activity against bovine liver α-galactosidase” value in experiment [5] is recorded as “does not show any inhibitory activity”.
Consider `N[C@@H]1[C@H](O)[C@@H](O)[C@@H](O)[C@H]1CO` [compound 22, (1S,2S,3S,4S,5R)-4-Amino-5-(hydroxymethyl)cyclopentane-1,2,3-triol], for which the Ki is 12000 nM in experiment [3] (read-out: Ki gcb (α-Gal) (GH 27) (converted)); 18 ± 3 µM in experiment [6]; 200 ± 90 µM in experiment [7]; 14 ± 3 nM in experiment [8]; 160 ± 60 µM in experiment [9]; 6700 ± 900 nM in [10]. Moreover, the Ki in experiment [11] came out at 9.5 ± 1.9 µM.
Turning to `CCCCCCN[C@@H]1[C@H](O)[C@@H](O)[C@@H](O)[C@H]1CO` [compound 23, (1S,2S,3S,4S,5R)-4-(n-Hexylamino)-5-(hydroxymethyl)cyclopentane-1,2,3-triol], the Ki in experiment [6] turned out to be 40 ± 8 µM; in [7], 120 ± 20 µM; in [8], 13 ± 3 nM; in [9], 130 ± 40 µM; in experiment [10] it was 190 ± 50 nM; in experiment [11] it was 4.9 ± 0.9 µM.
Turning to `CCCCCCCCCN[C@@H]1[C@H](O)[C@@H](O)[C@@H](O)[C@H]1CO` [compound 24, (1S,2S,3S,4S,5R)-4-(n-Nonylamino)-5-(hydroxymethyl)cyclopentane-1,2,3-triol], the Ki in [6] stood at 1.2 ± 0.5 µM; in experiment [7] it was 23 ± 7 µM; in experiment [8] it was 3.7 ± 1.6 nM; in [9] it was 73 ± 17 µM; in experiment [10], 250 ± 50 nM; in experiment [11] it was 0.52 ± 0.21 µM.
Regarding `CN(C)c1cccc2c(S(=O)(=O)NCCCCCCN[C@@H]3[C@H](O)[C@@H](O)[C@@H](O)[C@H]3CO)cccc12` [compound 27, 5-(Dimethylamino)-N-(6-(((1S,2S,3S,4S,5R)-2,3,4-trihydroxy-5-(hydroxymethyl)cyclopentyl)amino)hexyl)naphthalene-1-sulfonamide], the Ki in experiment [6] is 0.63 ± 0.09 µM; in [7], 7.8 ± 4.6 µM; in [8], 5 ± 1 nM; in experiment [9], 16 ± 4 µM; in experiment [10], 140 ± 40 nM; in experiment [11], 4.4 ± 1.1 µM.
As to `Cc1c(OCC(F)(F)F)ccnc1C[S+]([O-])c1nc2ccccc2[nH]1` (stereo not shown) [lansoprazole], the IC50 in [3] (read-out: IC50 gcb α-galactosidase) was 6.4 µM.

The values above are taken from publication PMC9029992, “New α-galactosidase-inhibiting aminohydroxycyclopentanes” (RSC Advances, 2021).
